Laboratory results published in patent publication US9908886B2 (Agency for Science, Technology and Research, priority 2012, dated 2018).
pIC50: −log10 of the molar value. Where a name gives a salt, the structure may show the parent alone. Read-outs that look alike come from different tables or passages of the source.

How the values were obtained:
MNK1 = MNK1 (Homo sapiens, UniProt Q9BUB5); assay: In vitro MNK kinase assay (Caliper LabChip mobility shift); assay type: biochemical
MNK2 = MNK2 (Homo sapiens (Human), UniProt Q9HBH9); assay: as above; assay type: biochemical
[1] = enzymatic, 1.2 mM ATP, read-out: IC50 Mnk1
[2] = enzymatic, 250 μM ATP, read-out: IC50 Mnk2

Chain of MNK2 (Q9HBH9 84-388): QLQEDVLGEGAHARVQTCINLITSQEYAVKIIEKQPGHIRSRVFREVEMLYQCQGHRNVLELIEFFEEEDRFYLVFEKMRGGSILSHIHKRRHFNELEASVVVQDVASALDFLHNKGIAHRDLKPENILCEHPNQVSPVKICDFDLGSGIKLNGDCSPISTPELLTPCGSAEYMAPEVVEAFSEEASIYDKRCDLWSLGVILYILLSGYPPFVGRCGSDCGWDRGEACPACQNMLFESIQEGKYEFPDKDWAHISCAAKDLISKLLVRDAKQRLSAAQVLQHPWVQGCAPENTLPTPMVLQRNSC

SMILES | pIC50 (MNK1; [1]) | pIC50 (MNK2; [2]) | pIC50 (MNK1) | pIC50 (MNK2)
O=C(c1ccc(-c2cn3c(-c4ccc(Cl)cc4)cnc3cn2)cc1)N1CCNCC1 [Example 46, (4-(3-(4-chlorophenyl)imidazo[1,2-a]pyrazin-6-yl)phenyl)(piperazin-1-yl)methanone 2,2,2-trifluoroacetate salt] | > 6.00 | > 6.00 |  | 
N#Cc1ccc(-c2cnc3ccc(-c4ccc(C(=O)N5CCNCC5)c(O)c4)cn23)cc1 [Example 159, 4-(6-(3-hydroxy-4-(piperazine-1-carbonyl)phenyl)imidazo[1,2-a]pyridin-3-yl)benzonitrile] | > 7.00 | > 7.00 |  | 
Cc1cc(-c2ccc3ncc(-c4ccc(C#N)cc4)n3c2)ccc1C(=O)N1CCOCC1 [Example 156] | > 6.00 | > 6.00 |  | 
CN1CCN(C2CCN(C(=O)c3ccc(-c4ccn5ncc(-c6ccc(C#N)cc6)c5n4)cc3)CC2)CC1 [Example 179, 4-(5-(4-(4-(4-methylpiperazin-1-yl)piperidine-1-carbonyl)phenyl)pyrazolo[1,5-a]pyrimidin-3-yl)benzonitrile] | > 7.00 | > 7.00 |  | 
Cc1nnc(C2(C)CCN(C(=O)c3ccc(-c4ccc5ncc(-c6ccc(C#N)cc6)n5c4)cc3)CC2)o1 [Example 135, 4-(6-(4-(4-methyl-4-(5-methyl-1,3,4-oxadiazol-2-yl)piperidine-1-carbonyl)phenyl)imidazo[1,2-a]pyridin-3-yl)benzonitrile] | > 7.00 | > 7.00 |  | 
CC1(N)CCN(C(=O)c2ccc(-c3ccc4ncc(-c5ccc(Cl)cc5)n4c3)cc2)CC1 [Example 173, (4-amino-4-methylpiperidin-1-yl)(4-(3-(4-chlorophenyl)imidazo[1,2-a]pyridin-6-yl)phenyl)methanone] | > 7.00 | > 7.00 |  | 
CN1CCN(C(=O)c2ccc(-c3ccc4ncc(-c5ccc6c(c5)CC(=O)N6)n4n3)cc2)CC1 [Example 85, 5-(6-(4-(4-methylpiperazine-1-carbonyl)phenyl)imidazo[1,2-b]pyridazin-3-yl)indolin-2-one] | > 7.00 | > 7.00 |  | 
N#Cc1ccc(-c2cnc3ccc(-c4ccc(C(=O)N5CCC6(CCCCN6)CC5)cc4)cn23)cc1 [Example 117, 4-(6-(4-(1,9-diazaspiro[5.5]undecane-9-carbonyl)phenyl)imidazo[1,2-a]pyridin-3-yl)benzonitrile] | > 7.00 | > 7.00 |  | 
CN1CCN(C(=O)c2ccc(-c3ccc4ncc(-c5ccc(C#N)cc5)n4n3)cc2F)CC1 [Example 73, 4-(6-(3-fluoro-4-(4-methylpiperazine-1-carbonyl)phenyl)imidazo[1,2-b]pyridazin-3-yl)benzonitrile] | > 7.00 | > 7.00 |  | 
CC(C)N1CCN(C(=O)c2ccc(-c3ccc4ncc(-c5ccc(C#N)cc5)n4n3)cc2)CC1 [Example 59, 4-(6-(4-(4-isopropylpiperazine-1-carbonyl)phenyl)imidazo[1,2-b]pyridazin-3-yl)benzonitrile] | > 7.00 | > 7.00 |  | 
N#Cc1ccc(-c2cnc3ccc(-c4ccc(C(=O)NCCN5CCOCC5)cc4)cn23)cc1 [Example 116, 4-(3-(4-cyanophenyl)imidazo[1,2-a]pyridin-6-yl)-N-(2-morpholinoethyl)benzamide] | > 6.00 | > 6.00 |  | 
CN1CCN(C(=O)c2ccc(-c3ccc4ncc(-c5ccc6[nH]ncc6c5)n4n3)cc2)CC1 [Example 86, (4-(3-(1H-indazol-5-yl)imidazo[1,2-b]pyridazin-6-yl)phenyl)(4-methylpiperazin-1-yl)methanone] | > 7.00 | > 7.00 |  | 
N#Cc1ccc(-n2cnc3ccc(-c4ccc(C(=O)N5CCOCC5)cc4)cc32)cc1 [Example 190, 4-(6-(4-(morpholine-4-carbonyl)phenyl)-1H-benzo[d]imidazol-1-yl)benzonitrile] |  |  | > 6.00 | > 6.00
N#Cc1ccc(-c2cnc3ccc(-c4ccc(C(=O)N5CCN(C(=O)c6ccccc6)CC5)cc4)cn23)cc1 [Example 126, 4-(6-(4-(4-benzoylpiperazine-1-carbonyl)phenyl)imidazo[1,2-a]pyridin-3-yl)benzonitrile] | > 7.00 | > 7.00 |  | 
CN1CCN(C(=O)c2ccc(-c3ccc4ncc(-c5ccc(C#N)cc5)n4n3)cc2[N+](=O)[O-])CC1 [Example 79, 4-(6-(4-(4-methylpiperazine-1-carbonyl)-3-nitrophenyl)imidazo[1,2-b]pyridazin-3-yl)benzonitrile] | > 7.00 | > 7.00 |  | 
CN1CCN(C(=O)c2ccc(-c3ccc4ncc(-c5ccc(O)cc5)n4c3)cc2)CC1 [Example 175, (4-(3-(4-hydroxyphenyl)imidazo[1,2-a]pyridin-6-yl)phenyl)(4-methylpiperazin-1-yl)methanone] |  | > 7.00 |  | 
CN1CCN(C(=O)c2ccc(-c3ccc4ncc(-c5ccc6[nH]cnc6c5)n4n3)cc2)CC1 [Example 87, (4-(3-(1H-benzo[d]imidazol-5-yl)imidazo[1,2-b]pyridazin-6-yl)phenyl)(4-methylpiperazin-1-yl)methanone] | > 7.00 | > 7.00 |  | 
CCN1CCN(C(=O)c2ccc(-c3ccc4ncc(-c5ccc(C#N)cc5)n4c3)cc2)CC1 [Example 98, 4-(6-(4-(4-ethylpiperazine-1-carbonyl)phenyl)imidazo[1,2-a]pyridin-3-yl)benzonitrile] | > 7.00 | > 7.00 |  | 
Cc1cc(-c2ccc3ncc(-c4ccc(C#N)cc4)n3n2)ccc1C(=O)N1CCN(C)CC1 [Example 74, 4-(6-(3-methyl-4-(4-methylpiperazine-1-carbonyl)phenyl)imidazo[1,2-b]pyridazin-3-yl)benzonitrile] | > 7.00 | > 7.00 |  | 
CN1CCN(C(=O)c2ccc(-c3ccc4ncc(-c5ccc(C#N)cc5)n4c3)cc2Cl)CC1 [Example 141, 4-(6-(3-chloro-4-(4-methylpiperazine-1-carbonyl)phenyl)imidazo[1,2-a]pyridin-3-yl)benzonitrile] | > 7.00 | > 7.00 |  | 
N#Cc1ccc(-c2cnc3ccc(-c4ccc(C(=O)N5CCC6(CCCCN6)CC5)cc4)nn23)cc1 [Example 71, 4-(6-(4-(1,9-diazaspiro[5.5]undecane-9-carbonyl)phenyl)imidazo[1,2-b]pyridazin-3-yl)benzonitrile] | > 7.00 | > 7.00 |  | 
N#Cc1ccc(-c2cnc3ccc(-c4ccc(C(=O)NCC(=O)N5CCOCC5)cc4)cn23)cc1 [Example 115, 4-(3-(4-cyanophenyl)imidazo[1,2-a]pyridin-6-yl)-N-(2-morpholino-2-oxoethyl)benzamide] | > 6.00 | > 6.00 |  | 
CCC1(NC(C)=O)CCN(C(=O)c2ccc(-c3ccc4ncc(-c5ccc(C#N)cc5)n4n3)cc2)CC1 [Example 66, N-(1-(4-(3-(4-cyanophenyl)imidazo[1,2-b]pyridazin-6-yl)benzoyl)-4-ethylpiperidin-4-yl)acetamide] | > 7.00 | > 7.00 |  | 

Now from value to compound, other results behind:

pIC50 (MNK1; [1]) | pIC50 (MNK2; [2]) | SMILES | pIC50 (MNK1) | pIC50 (MNK2)
> 7.00 | > 7.00 | N#Cc1ccc(-c2cnc3ccc(-c4ccc(C(=O)N5CCCOCC5)cc4)nn23)cc1 [Example 64, 4-(6-(4-(1,4-oxazepane-4-carbonyl)phenyl)imidazo[1,2-b]pyridazin-3-yl)benzonitrile] |  | 
> 7.00 | > 6.00 | CC1(N)CCN(C(=O)c2ccc(-c3cn4c(-c5ccc(C#N)cc5)cnc4cn3)cc2Cl)CC1 [Example 32, 4-(6-(4-(4-amino-4-methylpiperidine-1-carbonyl)-3-chlorophenyl)imidazo[1,2-a]pyrazin-3-yl)benzonitrile] |  | 
> 7.00 | > 7.00 | CN1CCN(C2CCN(C(=O)c3ccc(-c4ccc5ncc(-c6ccc(C#N)cc6)n5n4)cc3)CC2)CC1 [Example 70, 4-(6-(4-(4-(4-methylpiperazin-1-yl)piperidine-1-carbonyl)phenyl)imidazo[1,2-b]pyridazin-3-yl)benzonitrile] |  | 
> 6.00 | > 6.00 | N#Cc1ccc(-c2cnc3cnc(-c4ccc(C(=O)N5CCC6(CC5)COC6)cc4)cn23)cc1 [Example 24, 4-(6-(4-(2-oxa-7-azaspiro[3.5]nonane-7-carbonyl)phenyl)imidazo[1,2-a]pyrazin-3-yl)benzonitrile] |  | 
> 6.00 | > 6.00 | CN1CCN(C(=O)c2ccc(-c3ccc4ncc(-c5ccc(C#N)cc5)n4c3)cc2OC(F)(F)F)CC1 [Example 157] |  | 
> 7.00 | > 7.00 | CC1(N)CCN(C(=O)c2ccc(-c3ccc4ncc(-c5ccc(C#N)cc5)n4n3)cc2)CC1 [Example 58, 4-(6-(4-(4-amino-4-methylpiperidine-1-carbonyl)phenyl)imidazo[1,2-b]pyridazin-3-yl)benzonitrile] |  | 
> 7.00 | > 7.00 | CN1CCC(C2CCN(C(=O)c3ccc(-c4ccc5ncc(-c6ccc(C#N)cc6)n5c4)cc3)CC2)CC1 [Example 105, 4-(6-(4-(1′-methyl-4,4′-bipiperidine-1-carbonyl)phenyl)imidazo[1,2-a]pyridin-3-yl)benzonitrile] |  | 
> 7.00 | > 7.00 | CN1CCCN(C(=O)c2ccc(-c3ccc4ncc(-c5ccc(C#N)cc5)n4c3)cc2)CC1 [Example 103, 4-(6-(4-(4-methyl-1,4-diazepane-1-carbonyl)phenyl)imidazo[1,2-a]pyridin-3-yl)benzonitrile] |  | 
> 7.00 | > 7.00 | N#Cc1ccc(-c2cnc3ccc(-c4ccc(C(=O)N5CCCNCC5)cc4)cn23)cc1 [Example 107, 4-(6-(4-(1,4-diazepane-1-carbonyl)phenyl)imidazo[1,2-a]pyridin-3-yl)benzonitrile] |  | 
> 6.00 | > 6.00 | N#Cc1ccc(-c2cnc3cnc(-c4ccc(C(=O)N5CCC(N)CC5)c(F)c4)cn23)cc1 [Example 29, 4-(6-(4-(4-aminopiperidine-1-carbonyl)-3-fluorophenyl)imidazo[1,2-a]pyrazin-3-yl)benzonitrile] |  | 
> 6.00 |  | O=C(c1ccc(-c2cn3c(-c4ccc(Cl)cc4)cnc3cn2)cc1)N1CCC(NC(=O)C(F)(F)F)CC1 [Example 48, N-(1-(4-(3-(4-chlorophenyl)imidazo[1,2-a]pyrazin-6-yl)benzoyl)piperidin-4-yl)-2,2,2-trifluoroacetamide] |  | 
